Data published in patent US20070043008A1, “Condensed Bicyclo[3.1.0] Hex-4-EN Derivatives Useful as Antibacterial Agents” (priority 2003, published 2007).
Values after ≈ are worked out from the molar mass of the structure shown. Like-named read-outs stand apart in the source and are kept apart here.

Assays:
Format in all cases: cell-based
[1] = test system: Staphylococcus aureus; experiment: MIC/MBC broth dilution, Staphylococcus aureus patient isolates
Procedure: (§1) The Minimal inhibitory concentration (MIC) and the Minimal bactericidal concentration (MBC) have been tested against various bacteria including patient isolates and antibiotic resistant strains such as S. aureus ATCC 25923, E. coli ATCC 25922, P. aeruginosa ATCC 27853.
(§2) The bacteria were streaked on a nutrient agar plate to obtain a freshly isolated colony subsequently incubated overnight at 37° C. 4-5 isolated colonies were added into Mueller Hinton broth (MHB) solution, incubated for 4 hrs at 37° C. The turbidity was adjusted to the McFarland tube and the solution was diluted with MHB to 1:200.
(§3) The test solution was diluted with dimethyl sulfoxide (DMSO) and MHB in the ratio of 1:4 to get a final concentration of 512 μg/ml. 50 μl of MHB were added to each of twelve wells except the first well. Dilutions were made, mixed and the solutions were then incubated overnight at 37° C.
(§4) In order to determine the MBC, a loopful of each clear well was streaked onto a nutrient containing agar plate, which was subsequently incubated overnight at 37° C. The MBC was then determined as the lowest concentration which has shown no visible colony for each chemical.

[2] = test system: S. aureus ATCC 25923; experiment: MIC/MBC broth dilution, S. aureus ATCC 25923; settings: Staphylococcus aureus, ATCC25923; S. aureus ATCC 25923, resistant strain (footnote 3)
Procedure: as §1, §2, §3, §4

[3] = test system: E. coli ATCC 25922; experiment: MIC/MBC broth dilution, E. coli ATCC 25922; settings: Escherichia coli, ATCC25922; E. coli ATCC 25922, resistant strain (footnote 3)
Procedure: as §1, §2, §3, §4

[4] = test system: Klebsiella pneumoniae; experiment: MIC/MBC broth dilution, Klebsiella pneumoniae patient isolates
Procedure: as §1, §2, §3, §4

[5] = test system: Escherichia coli; experiment: MIC/MBC broth dilution, Escherichia coli patient isolates
Procedure: as §1, §2, §3, §4

[6] = test system: Enterobacter spp.; experiment: MIC/MBC broth dilution, Enterobacter spp. patient isolates
Procedure: as §1, §2, §3, §4

[7] = test system: P. aeruginosa ATCC 27853; experiment: MIC/MBC broth dilution, P. aeruginosa ATCC 27853; settings: Pseudomonas aeruginosa, ATCC27853; P. aeruginosa ATCC 27853, resistant strain (footnote 3)
Procedure: as §1, §2, §3, §4

[8] = test system: Pseudomonas aeruginosa; experiment: MIC/MBC broth dilution, Pseudomonas aeruginosa patient isolates
Procedure: as §1, §2, §3, §4

[9] = test system: Acinetobacter spp.; experiment: MIC/MBC broth dilution, Acinetobacter spp. patient isolates
Procedure: as §1, §2, §3, §4

[10] = test system: various bacteria including patient isolates and antibiotic resistant strains; experiment: Antibacterial evaluation across all bacteria tested (summary of MIC/MBC)
Procedure: as §1, §2
The test solution was diluted with dimethyl sulfoxide (DMSO) and MHB in the ratio of 1:4 to get a final concentration of 512 μg/ml. 50 μl of MHB were added to each of twelve wells except the first well. […]
as §4
The first step in the evaluation was to determine the zone of inhibition on agar plates comparing the Example compounds with ampicillin and chloramphenicol as standards. Following this initial screening, the MIC/MBC was determined as previously described and the results are outlined in Table 1 for selected examples.

[11] = Enterobacter, patient isolate En1
[12] = patient isolates, isolate code not given (one value per isolate)
[13] = Enterobacter, patient isolates, isolate code not given (one value per isolate)
[14] = Acinetobacter, patient isolates, isolate code not given (one value per isolate), read-out: MIC

Compound: CN1C2=C(Cl)C(=O)OC21 (stereo not drawn) [Example 1, 4-chloro-6-methyl-2-oxa-6-azabicyclo[3.1.0]hex-4-en-3-one]
- MBC ([1]; patient isolate S1): > 128 µg/mL
- MIC ([1]; patient isolate S1): 128 µg/mL (≈ 879 µM)
- MBC ([1]; patient isolate S2): > 128 µg/mL
- MIC ([1]; patient isolate S2): 128 µg/mL (≈ 879 µM)
- MBC ([1]; patient isolate S3): 128 µg/mL (≈ 879 µM)
- MIC ([1]; patient isolate S3): 64 µg/mL (≈ 440 µM)
- MBC ([1]; patient isolate S4): > 128 µg/mL
- MIC ([1]; patient isolate S4): 64 µg/mL (≈ 440 µM)
- MBC [2]: 64 µg/mL (≈ 440 µM)
- MIC [2]: 16 µg/mL (≈ 110 µM)
- MBC [3]: 32 µg/mL (≈ 220 µM)
- MIC [3]: 16 µg/mL (≈ 110 µM)
- MBC ([4]; patient isolate K1): 64 µg/mL (≈ 440 µM)
- MIC ([4]; patient isolate K1): 64 µg/mL (≈ 440 µM)
- MBC ([4]; patient isolate K2): 64 µg/mL (≈ 440 µM)
- MIC ([4]; patient isolate K2): 32 µg/mL (≈ 220 µM)
- MBC ([4]; patient isolate K3): 32 µg/mL (≈ 220 µM)
- MIC ([4]; patient isolate K3): 32 µg/mL (≈ 220 µM)
- MBC ([4]; patient isolate K4): 128 µg/mL (≈ 879 µM)
- MIC ([4]; patient isolate K4): 128 µg/mL (≈ 879 µM)
- MBC ([4]; patient isolate K5): 64 µg/mL (≈ 440 µM)
- MIC ([4]; patient isolate K5): 64 µg/mL (≈ 440 µM)
- MBC ([5]; patient isolate E1): 32 µg/mL (≈ 220 µM)
- MIC ([5]; patient isolate E1): 32 µg/mL (≈ 220 µM)
- MBC ([5]; patient isolate E2): 64 µg/mL (≈ 440 µM)
- MIC ([5]; patient isolate E2): 64 µg/mL (≈ 440 µM)
- MBC ([5]; patient isolate E3): 64 µg/mL (≈ 440 µM)
- MIC ([5]; patient isolate E3): 64 µg/mL (≈ 440 µM)
- MBC ([5]; patient isolate E4): 64 µg/mL (≈ 440 µM)
- MIC ([5]; patient isolate E4): 32 µg/mL (≈ 220 µM)
- MBC ([5]; patient isolate E5): 64 µg/mL (≈ 440 µM)
- MIC ([5]; patient isolate E5): 64 µg/mL (≈ 440 µM)
- MBC [6, 11]: 64 µg/mL (≈ 440 µM)
- MIC [6, 11]: 32 µg/mL (≈ 220 µM)
- MBC ([6]; Enterobacter, patient isolate En3, read-out: MBC): 32 µg/mL (≈ 220 µM)
- MIC ([6]; Enterobacter, patient isolate En3, read-out: MIC): 32 µg/mL (≈ 220 µM)
- MBC ([6]; Enterobacter, patient isolate En4, read-out: MBC): 128 µg/mL (≈ 879 µM)
- MIC ([6]; Enterobacter, patient isolate En4, read-out: MIC): 64 µg/mL (≈ 440 µM)
- MBC ([6]; Enterobacter, patient isolate En5, read-out: MBC): 64 µg/mL (≈ 440 µM)
- MIC ([6]; Enterobacter, patient isolate En5, read-out: MIC): 64 µg/mL (≈ 440 µM)
- MBC [7]: 32 µg/mL (≈ 220 µM)
- MIC [7]: 32 µg/mL (≈ 220 µM)
- MBC ([8]; patient isolate P7): 64 µg/mL (≈ 440 µM)
- MIC ([8]; patient isolate P7): 32 µg/mL (≈ 220 µM)
- MBC ([8]; patient isolate P10): 64 µg/mL (≈ 440 µM)
- MIC ([8]; patient isolate P10): 64 µg/mL (≈ 440 µM)
- MBC ([8]; patient isolate P12): 128 µg/mL (≈ 879 µM)
- MIC ([8]; patient isolate P12): 128 µg/mL (≈ 879 µM)
- MBC ([8]; patient isolate P13): 64 µg/mL (≈ 440 µM)
- MIC ([8]; patient isolate P13): 32 µg/mL (≈ 220 µM)
- MBC ([8]; patient isolate P14): 64 µg/mL (≈ 440 µM)
- MIC ([8]; patient isolate P14): 32 µg/mL (≈ 220 µM)
- MBC ([8]; patient isolate P16): 64 µg/mL (≈ 440 µM)
- MIC ([8]; patient isolate P16): 32 µg/mL (≈ 220 µM)
- MBC ([9]; Acinetobacter, patient isolate A1, read-out: MBC): 16 µg/mL (≈ 110 µM)
- MIC ([9]; Acinetobacter, patient isolate A1, read-out: MIC): 8 µg/mL (≈ 55 µM)
- MBC ([9]; Acinetobacter, patient isolate A2, read-out: MBC): 64 µg/mL (≈ 440 µM)
- MIC ([9]; Acinetobacter, patient isolate A2, read-out: MIC): 64 µg/mL (≈ 440 µM)
- MBC ([9]; Acinetobacter, patient isolate A3, read-out: MBC): 32 µg/mL (≈ 220 µM)
- MIC ([9]; Acinetobacter, patient isolate A3, read-out: MIC): 16 µg/mL (≈ 110 µM)
- MBC ([9]; Acinetobacter, patient isolate A4, read-out: MBC): 64 µg/mL (≈ 440 µM)
- MIC ([9]; Acinetobacter, patient isolate A4, read-out: MIC): 64 µg/mL (≈ 440 µM)
- MBC ([9]; Acinetobacter, patient isolate A5, read-out: MBC): 32 µg/mL (≈ 220 µM)
- MIC ([9]; Acinetobacter, patient isolate A5, read-out: MIC): 32 µg/mL (≈ 220 µM)
- MIC for antibiotic resistant strains compared with corresponding non-resistant isolates ([10]; resistant ATCC strains vs patient isolates): lower MIC for the antibiotic resistant strains than the corresponding non-resistant isolates

Compound: O=C1OC2NC2=C1Cl (stereo not drawn) [Example 3, 4-chloro-2-oxa-6-azabicyclo[3.1.0]hex-4-en-3-one]
- MBC [1, 12]: > 128 µg/mL
- MIC [1, 12]: 128 µg/mL (≈ 973 µM)
- MBC [2]: > 128 µg/mL
- MIC [2]: 128 µg/mL (≈ 973 µM)
- MBC [3]: 128 µg/mL (≈ 973 µM)
- MIC [3]: 128 µg/mL (≈ 973 µM)
- MBC [4, 12]: 64 µg/mL (≈ 487 µM)
- MIC [4, 12]: 64 µg/mL (≈ 487 µM)
- MBC [5, 12]: 128 µg/mL (≈ 973 µM)
- MIC [5, 12]: 64 µg/mL (≈ 487 µM)
- MBC [6, 13]: 64 µg/mL (≈ 487 µM)
- MIC [6, 13]: 64 µg/mL (≈ 487 µM)
- MBC [7]: 128 µg/mL (≈ 973 µM)
- MIC [7]: 128 µg/mL (≈ 973 µM)
- MBC [8, 12]: 128 µg/mL (≈ 973 µM)
- MIC [8, 12]: 128 µg/mL (≈ 973 µM)
- MIC [9, 14]: 32 µg/mL (≈ 243 µM)

Compound: O=C1OC2C(=C1Cl)N2Cc1ccccc1 (stereo not drawn) [Example 4, 4-chloro-6-benzyl-2-oxa-6-azabicyclo[3.1.0]hex-4-en-3-one]
- MBC [2]: 8 µg/mL (≈ 36.1 µM)
- MIC [2]: 4 µg/mL (≈ 18 µM)
- MBC [3]: 16 µg/mL (≈ 72.2 µM)
- MIC [3]: 8 µg/mL (≈ 36.1 µM)
- MBC [5, 12]: 16 µg/mL (≈ 72.2 µM)
- MIC [5, 12]: 16 µg/mL (≈ 72.2 µM)
- MBC [6, 13]: 16 µg/mL (≈ 72.2 µM)
- MIC [6, 13]: 8 µg/mL (≈ 36.1 µM)
- MBC [6, 12]: 32 µg/mL (≈ 144 µM)
- MIC [6, 12]: 16 µg/mL (≈ 72.2 µM)
- MBC [7]: 32 µg/mL (≈ 144 µM)
- MIC [7]: 16 µg/mL (≈ 72.2 µM)
- MBC ([9]; Acinetobacter, patient isolates, isolate code not given (one value per isolate), read-out: MBC): 8 µg/mL (≈ 36.1 µM)
- MIC [9, 14]: 4 µg/mL (≈ 18 µM)
- MBC [9, 12]: 16 µg/mL (≈ 72.2 µM)
- MIC [9, 12]: 8 µg/mL (≈ 36.1 µM)
- broad spectrum antibacterial activity ([10]; summary of Table 1): good broad spectrum activity
